In patent US8008456B2, “Compositions containing, methods involving, and uses of non-natural amino acids and polypeptides” (Ambrx, Inc., priority 2004, dated 2011):
Blank lines part the entries; values can stand above or below the compound they belong to.

Experiment: pH stability tests
Type: physicochemical
Protocol: This example provides the results of pH stability tests that were conducted on certain illustrative non-natural amino acids as an aid for predicting their properties for incorporation into non-natural amino acid polypeptides.

Compound: COCCOC(=O)NCCO/N=C(\C)COc1ccccc1
- pH stability (pH 4.0, 1 hour): 2%
- pH stability (pH 4.0, 1 day): 5%
- pH stability (pH 4.0, 2 days): 5%
- pH stability (pH 4.0, 3 days): 5%
- pH stability (pH 4.0, 4 days): 8%
- pH stability (pH 4.0, 5 days): 8%
- pH stability (pH 4.0, 6 days): 8%
- pH stability (pH 4.0, 7 days): 9%
- pH stability (pH 4.0, 10 days): 10%
- pH stability (pH 5.0, 1 hour): <1%
- pH stability (pH 5.0, 1 day): 5%
- pH stability (pH 5.0, 2 days): 5%
- pH stability (pH 5.0, 3 days): 5%
- pH stability (pH 5.0, 4 days): 5%
- pH stability (pH 5.0, 5 days): 5%
- pH stability (pH 5.0, 6 days): 5%
- pH stability (pH 5.0, 7 days): 5%
- pH stability (pH 5.0, 10 days): 5%
- pH stability (pH 6.5, 1 hour): <1%
- pH stability (pH 6.5, 1 day): <1%
- pH stability (pH 6.5, 2 days): <1%
- pH stability (pH 6.5, 3 days): <1%
- pH stability (pH 6.5, 4 days): <1%
- pH stability (pH 6.5, 5 days): <1%
- pH stability (pH 6.5, 6 days): <1%
- pH stability (pH 6.5, 7 days): <1%
- pH stability (pH 6.5, 10 days): <1%
- pH stability (pH 7.4, 1 hour): <1%
- pH stability (pH 7.4, 1 day): 15%
- pH stability (pH 7.4, 2 days): 15%
- pH stability (pH 7.4, 3 days): 15%
- pH stability (pH 7.4, 4 days): 15%
- pH stability (pH 7.4, 5 days): 15%
- pH stability (pH 7.4, 6 days): 15%
- pH stability (pH 7.4, 7 days): 15%
- pH stability (pH 7.4, 10 days): 15%
- pH stability (pH 8.0, 1 hour): <1%
- pH stability (pH 8.0, 1 day): 35%
- pH stability (pH 8.0, 2 days): 38%
- pH stability (pH 8.0, 3 days): 40%
- pH stability (pH 8.0, 4 days): 45%
- pH stability (pH 8.0, 5 days): 45%
- pH stability (pH 8.0, 6 days): 45%
- pH stability (pH 8.0, 7 days): 45%
- pH stability (pH 8.0, 10 days): 45%

Compound: COCCOC(=O)NCCO/N=C1\C(=O)Nc2ccccc21
- pH stability (pH 4.0, 1 hour): <1%
- pH stability (pH 4.0, 1 day): <1%
- pH stability (pH 4.0, 2 days): <1%
- pH stability (pH 4.0, 3 days): <1%
- pH stability (pH 4.0, 4 days): <1%
- pH stability (pH 4.0, 5 days): <1%
- pH stability (pH 4.0, 6 days): <1%
- pH stability (pH 4.0, 7 days): <1%
- pH stability (pH 4.0, 10 days): <1%
- pH stability (pH 5.0, 1 hour): <1%
- pH stability (pH 5.0, 1 day): <1%
- pH stability (pH 5.0, 2 days): <1%
- pH stability (pH 5.0, 3 days): <1%
- pH stability (pH 5.0, 4 days): <1%
- pH stability (pH 5.0, 5 days): <1%
- pH stability (pH 5.0, 6 days): <1%
- pH stability (pH 5.0, 7 days): <1%
- pH stability (pH 5.0, 10 days): <1%
- pH stability (pH 6.5, 1 hour): <1%
- pH stability (pH 6.5, 1 day): <1%
- pH stability (pH 6.5, 2 days): <1%
- pH stability (pH 6.5, 3 days): <1%
- pH stability (pH 6.5, 4 days): <1%
- pH stability (pH 6.5, 5 days): <1%
- pH stability (pH 6.5, 6 days): <1%
- pH stability (pH 6.5, 7 days): <1%
- pH stability (pH 6.5, 10 days): <1%
- pH stability (pH 7.4, 1 hour): <1%
- pH stability (pH 7.4, 1 day): <1%
- pH stability (pH 7.4, 2 days): <1%
- pH stability (pH 7.4, 3 days): <1%
- pH stability (pH 7.4, 4 days): <1%
- pH stability (pH 7.4, 5 days): <1%
- pH stability (pH 7.4, 6 days): <1%
- pH stability (pH 7.4, 7 days): <1%
- pH stability (pH 7.4, 10 days): <1%
- pH stability (pH 8.0, 1 hour): <1%
- pH stability (pH 8.0, 1 day): <1%
- pH stability (pH 8.0, 2 days): <1%
- pH stability (pH 8.0, 3 days): <1%
- pH stability (pH 8.0, 4 days): <1%
- pH stability (pH 8.0, 5 days): <1%
- pH stability (pH 8.0, 6 days): <1%
- pH stability (pH 8.0, 7 days): <1%
- pH stability (pH 8.0, 10 days): <1%

Compound: COCCOCNCCO/N=C(\C)CC(=O)c1ccccc1 [drawing 135]
- pH stability (pH 4.0, 1 hour): <1%
- pH stability (pH 4.0, 1 day): <1%
- pH stability (pH 4.0, 2 days): <1%
- pH stability (pH 4.0, 3 days): <1%
- pH stability (pH 4.0, 4 days): <1%
- pH stability (pH 4.0, 5 days): <1%
- pH stability (pH 4.0, 6 days): 2%
- pH stability (pH 4.0, 7 days): 2%
- pH stability (pH 4.0, 10 days): 3%
- pH stability (pH 5.0, 1 hour): <1%
- pH stability (pH 5.0, 1 day): <1%
- pH stability (pH 5.0, 2 days): <1%
- pH stability (pH 5.0, 3 days): <1%
- pH stability (pH 5.0, 4 days): <1%
- pH stability (pH 5.0, 5 days): <1%
- pH stability (pH 5.0, 6 days): <1%
- pH stability (pH 5.0, 7 days): <1%
- pH stability (pH 5.0, 10 days): <1%
- pH stability (pH 6.5, 1 hour): <1%
- pH stability (pH 6.5, 1 day): <1%
- pH stability (pH 6.5, 2 days): <1%
- pH stability (pH 6.5, 3 days): <1%
- pH stability (pH 6.5, 4 days): <1%
- pH stability (pH 6.5, 5 days): <1%
- pH stability (pH 6.5, 6 days): <1%
- pH stability (pH 6.5, 7 days): <1%
- pH stability (pH 6.5, 10 days): <1%
- pH stability (pH 7.4, 1 hour): <1%
- pH stability (pH 7.4, 1 day): <1%
- pH stability (pH 7.4, 2 days): <1%
- pH stability (pH 7.4, 3 days): <1%
- pH stability (pH 7.4, 4 days): <1%
- pH stability (pH 7.4, 5 days): 3%
- pH stability (pH 7.4, 6 days): 4%
- pH stability (pH 7.4, 7 days): 7%
- pH stability (pH 7.4, 10 days): 11%
- pH stability (pH 8.0, 1 hour): <1%
- pH stability (pH 8.0, 1 day): <1%
- pH stability (pH 8.0, 2 days): <1%
- pH stability (pH 8.0, 3 days): <1%
- pH stability (pH 8.0, 4 days): <1%
- pH stability (pH 8.0, 5 days): <1%
- pH stability (pH 8.0, 6 days): <1%
- pH stability (pH 8.0, 7 days): <1%
- pH stability (pH 8.0, 10 days): <1%

Next, values leading:

- pH stability (pH 4.0, 1 hour): <1%
- pH stability (pH 4.0, 1 day): <1%
- pH stability (pH 4.0, 2 days): <1%
- pH stability (pH 4.0, 3 days): <1%
- pH stability (pH 4.0, 4 days): <1%
- pH stability (pH 4.0, 5 days): <1%
- pH stability (pH 4.0, 6 days): <1%
- pH stability (pH 4.0, 7 days): <1%
- pH stability (pH 4.0, 10 days): <1%
- pH stability (pH 5.0, 1 hour): <1%
- pH stability (pH 5.0, 1 day): <1%
- pH stability (pH 5.0, 2 days): <1%
- pH stability (pH 5.0, 3 days): <1%
- pH stability (pH 5.0, 4 days): <1%
- pH stability (pH 5.0, 5 days): <1%
- pH stability (pH 5.0, 6 days): <1%
- pH stability (pH 5.0, 7 days): <1%
- pH stability (pH 5.0, 10 days): <1%
- pH stability (pH 6.5, 1 hour): <1%
- pH stability (pH 6.5, 1 day): <1%
- pH stability (pH 6.5, 2 days): <1%
- pH stability (pH 6.5, 3 days): <1%
- pH stability (pH 6.5, 4 days): <1%
- pH stability (pH 6.5, 5 days): <1%
- pH stability (pH 6.5, 6 days): <1%
- pH stability (pH 6.5, 7 days): <1%
- pH stability (pH 6.5, 10 days): <1%
- pH stability (pH 7.4, 1 hour): <1%
- pH stability (pH 7.4, 1 day): <1%
- pH stability (pH 7.4, 2 days): <1%
- pH stability (pH 7.4, 3 days): <1%
- pH stability (pH 7.4, 4 days): <1%
- pH stability (pH 7.4, 5 days): <1%
- pH stability (pH 7.4, 6 days): <1%
- pH stability (pH 7.4, 7 days): <1%
- pH stability (pH 7.4, 10 days): <1%
- pH stability (pH 8.0, 1 hour): <1%
- pH stability (pH 8.0, 1 day): <1%
- pH stability (pH 8.0, 2 days): <1%
- pH stability (pH 8.0, 3 days): <1%
- pH stability (pH 8.0, 4 days): <1%
- pH stability (pH 8.0, 5 days): <1%
- pH stability (pH 8.0, 6 days): <1%
- pH stability (pH 8.0, 7 days): <1%
- pH stability (pH 8.0, 10 days): <1%
Compound: COCCOC(=O)NCCO/N=C(\C)C(=O)c1ccccc1

- pH stability (pH 4.0, 1 hour): 4.0%
- pH stability (pH 4.0, 1 day): <1%
- pH stability (pH 4.0, 2 days): <1%
- pH stability (pH 4.0, 3 days): <1%
- pH stability (pH 4.0, 4 days): <1%
- pH stability (pH 4.0, 5 days): <1%
- pH stability (pH 4.0, 6 days): <1%
- pH stability (pH 4.0, 7 days): <1%
- pH stability (pH 4.0, 10 days): <1%
- pH stability (pH 5.0, 1 hour): 5.0%
- pH stability (pH 5.0, 1 day): <1%
- pH stability (pH 5.0, 2 days): <1%
- pH stability (pH 5.0, 3 days): <1%
- pH stability (pH 5.0, 4 days): <1%
- pH stability (pH 5.0, 5 days): <1%
- pH stability (pH 5.0, 6 days): <1%
- pH stability (pH 5.0, 7 days): <1%
- pH stability (pH 5.0, 10 days): <1%
- pH stability (pH 6.5, 1 hour): 6.5%
- pH stability (pH 6.5, 1 day): <1%
- pH stability (pH 6.5, 2 days): <1%
- pH stability (pH 6.5, 3 days): <1%
- pH stability (pH 6.5, 4 days): <1%
- pH stability (pH 6.5, 5 days): <1%
- pH stability (pH 6.5, 6 days): <1%
- pH stability (pH 6.5, 7 days): <1%
- pH stability (pH 6.5, 10 days): <1%
- pH stability (pH 7.4, 1 hour): 7.4%
- pH stability (pH 7.4, 1 day): <1%
- pH stability (pH 7.4, 2 days): <1%
- pH stability (pH 7.4, 3 days): <1%
- pH stability (pH 7.4, 4 days): <1%
- pH stability (pH 7.4, 5 days): <1%
- pH stability (pH 7.4, 6 days): <1%
- pH stability (pH 7.4, 7 days): <1%
- pH stability (pH 7.4, 10 days): <1%
- pH stability (pH 8.0, 1 hour): 8.0%
- pH stability (pH 8.0, 1 day): <1%
- pH stability (pH 8.0, 2 days): <1%
- pH stability (pH 8.0, 3 days): <1%
- pH stability (pH 8.0, 4 days): <1%
- pH stability (pH 8.0, 5 days): <1%
- pH stability (pH 8.0, 6 days): <1%
- pH stability (pH 8.0, 7 days): <1%
- pH stability (pH 8.0, 10 days): <1%
Compound: COCCOC(=O)NCCO/N=C(\C)C(=O)Nc1ccccc1 [drawing 138]
